The source of these data is patent US20030088061A1, “Materials and methods to modulate ligand binding/enzymatic activity of alpha/beta proteins containing an allosteric regulatory site” (priority 2000, published 2003).

“And” between values parts separate entries of the source, which are not always exact repeats. Equal values may be shown once.

As usually defined, the IC50 is the concentration at which inhibition is half-maximal.

α4β1, sequence (P13612 34-1032): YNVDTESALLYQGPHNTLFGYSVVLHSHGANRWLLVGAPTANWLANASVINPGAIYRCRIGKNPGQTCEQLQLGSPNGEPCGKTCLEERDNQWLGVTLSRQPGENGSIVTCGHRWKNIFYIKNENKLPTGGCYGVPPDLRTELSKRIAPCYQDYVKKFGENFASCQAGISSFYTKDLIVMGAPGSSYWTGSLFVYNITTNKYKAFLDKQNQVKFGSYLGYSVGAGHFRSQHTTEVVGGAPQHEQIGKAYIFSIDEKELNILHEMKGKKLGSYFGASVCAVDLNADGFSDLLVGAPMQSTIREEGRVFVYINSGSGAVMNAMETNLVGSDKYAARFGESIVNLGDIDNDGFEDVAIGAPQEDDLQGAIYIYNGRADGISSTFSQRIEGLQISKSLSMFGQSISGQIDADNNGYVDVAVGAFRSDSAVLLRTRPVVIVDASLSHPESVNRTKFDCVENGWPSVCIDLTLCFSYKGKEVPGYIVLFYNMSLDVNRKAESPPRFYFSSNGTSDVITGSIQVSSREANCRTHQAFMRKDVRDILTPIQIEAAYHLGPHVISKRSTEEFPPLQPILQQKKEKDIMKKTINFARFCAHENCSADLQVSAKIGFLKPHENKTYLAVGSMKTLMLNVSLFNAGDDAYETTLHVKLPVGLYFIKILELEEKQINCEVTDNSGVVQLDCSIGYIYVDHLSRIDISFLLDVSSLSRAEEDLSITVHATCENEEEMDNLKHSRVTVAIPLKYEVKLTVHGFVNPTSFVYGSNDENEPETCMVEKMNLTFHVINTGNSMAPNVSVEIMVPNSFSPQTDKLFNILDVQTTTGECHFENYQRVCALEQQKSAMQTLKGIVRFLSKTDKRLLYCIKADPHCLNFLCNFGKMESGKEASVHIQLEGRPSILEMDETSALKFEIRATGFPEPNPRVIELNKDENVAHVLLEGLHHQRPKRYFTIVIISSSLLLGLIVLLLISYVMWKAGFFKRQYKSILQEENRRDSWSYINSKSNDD
α4β1, sequence (P05556 21-798): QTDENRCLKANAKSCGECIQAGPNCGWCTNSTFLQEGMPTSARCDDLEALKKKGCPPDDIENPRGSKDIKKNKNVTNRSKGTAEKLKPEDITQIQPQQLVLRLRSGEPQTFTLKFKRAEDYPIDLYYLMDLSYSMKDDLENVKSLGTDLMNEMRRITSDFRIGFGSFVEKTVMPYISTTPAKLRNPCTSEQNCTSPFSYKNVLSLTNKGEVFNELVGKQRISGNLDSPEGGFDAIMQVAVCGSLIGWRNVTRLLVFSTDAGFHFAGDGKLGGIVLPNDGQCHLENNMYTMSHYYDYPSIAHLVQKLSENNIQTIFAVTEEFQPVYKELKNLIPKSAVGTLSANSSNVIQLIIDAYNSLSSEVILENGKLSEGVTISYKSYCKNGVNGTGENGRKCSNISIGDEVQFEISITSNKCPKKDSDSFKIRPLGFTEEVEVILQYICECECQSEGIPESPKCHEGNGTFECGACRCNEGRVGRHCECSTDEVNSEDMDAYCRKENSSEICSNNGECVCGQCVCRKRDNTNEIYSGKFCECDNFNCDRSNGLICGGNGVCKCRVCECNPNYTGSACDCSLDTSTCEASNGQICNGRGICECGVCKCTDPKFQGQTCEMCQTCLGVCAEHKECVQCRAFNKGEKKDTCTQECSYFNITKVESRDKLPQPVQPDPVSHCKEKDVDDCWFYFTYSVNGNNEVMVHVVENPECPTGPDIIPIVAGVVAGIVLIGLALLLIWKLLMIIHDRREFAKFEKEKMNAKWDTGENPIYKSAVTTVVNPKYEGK

The target in one data set is T1, α2β1 (Homo sapiens, UniProt P05556+P17301).
T1 construct: endogenous in cells; host or cells: Jurkat cells
T1 sequence (P17301 30-1181): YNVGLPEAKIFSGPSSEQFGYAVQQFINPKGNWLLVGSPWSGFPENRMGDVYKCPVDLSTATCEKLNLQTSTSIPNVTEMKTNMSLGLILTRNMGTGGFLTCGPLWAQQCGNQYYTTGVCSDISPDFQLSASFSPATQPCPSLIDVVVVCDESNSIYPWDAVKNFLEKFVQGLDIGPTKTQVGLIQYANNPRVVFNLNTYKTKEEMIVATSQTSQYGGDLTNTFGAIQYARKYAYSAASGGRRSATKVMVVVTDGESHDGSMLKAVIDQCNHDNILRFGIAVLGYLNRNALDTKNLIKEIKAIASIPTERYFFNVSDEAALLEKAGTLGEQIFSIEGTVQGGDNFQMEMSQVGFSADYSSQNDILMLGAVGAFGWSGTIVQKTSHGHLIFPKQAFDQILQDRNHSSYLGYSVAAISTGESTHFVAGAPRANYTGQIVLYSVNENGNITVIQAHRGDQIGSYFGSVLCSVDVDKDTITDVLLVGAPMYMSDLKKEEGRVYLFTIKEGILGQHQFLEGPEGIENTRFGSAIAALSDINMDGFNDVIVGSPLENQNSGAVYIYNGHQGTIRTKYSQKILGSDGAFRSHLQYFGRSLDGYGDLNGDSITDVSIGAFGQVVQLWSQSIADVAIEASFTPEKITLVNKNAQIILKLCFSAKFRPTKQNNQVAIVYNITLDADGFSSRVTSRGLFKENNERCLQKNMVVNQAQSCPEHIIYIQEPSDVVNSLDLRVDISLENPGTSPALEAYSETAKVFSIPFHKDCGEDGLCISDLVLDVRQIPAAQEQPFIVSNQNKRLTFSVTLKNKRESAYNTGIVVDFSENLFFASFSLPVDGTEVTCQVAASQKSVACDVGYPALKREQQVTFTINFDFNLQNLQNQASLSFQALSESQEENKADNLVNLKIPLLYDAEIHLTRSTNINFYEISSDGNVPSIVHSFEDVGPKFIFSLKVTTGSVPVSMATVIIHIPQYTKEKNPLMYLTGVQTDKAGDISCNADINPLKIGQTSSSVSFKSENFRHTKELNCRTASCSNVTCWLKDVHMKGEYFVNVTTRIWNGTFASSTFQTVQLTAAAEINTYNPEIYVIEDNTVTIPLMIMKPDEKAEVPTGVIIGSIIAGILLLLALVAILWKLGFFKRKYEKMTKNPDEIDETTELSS
T1 sequence (P05556 21-798 partner): as the sequence (P05556 21-798) above
Description: Jurkat cell adhesion to rat type I collagen. In kind it is cell-based. The following applies: Jurkat cells, PMA. The protocol: Binding studies using monoclonal antibodies to each of these integrins has shown that Jurkat cell adhesion to rat type I collagen is mediated predominantly through interaction with alpha2. […] The assay was carried out using a modification of a procedure previously described [Sadhu, et al., supra]. Immunlon 4 plates (Dynex Technologies, Chantilly, Va.) were coated overnight at 4° C. with (i) 50 μl rat type I collagen (Sigma) (20 μg/ml in CMF-PBS), (ii) anti-beta1 monoclonal antibody 3S3 (5 μg/ml) in bicarbonate buffer, pH 9.6, (iii) or bicarbonate buffer alone. Plates were washed once with 200 μl/well D-PBS and blocked with 1% BSA (100 μl/well) in D-PBS for 1 hr at room temperature. […] Adherent cells were fixed by additional of 50 μl/well 14% glutaraldehyde in D-PBS and incubation at room temperature for 2 hr. The plates were washed with dH2O and stained with 50 μl/well 0.5% crystal violet in 10% ethanol for 5 min at room temperature. The plates were washed in several changes of dH2O, after which 70% ethanol was added. Adherent cells were quantitated by determining absorbance at 570 nm and 410 nm using a […] 250 microplate spectrophotometer system (Molecular Devices, Sunnyvale Calif.). The percentage of cell binding was determined using the formula below. [formula] Data was normalized using the formula: [formula] […] These 21 compounds were further analyzed for specificity and toxicity. […] The assay was carried out in a manner similar to the collagen adhesion assay described above except that […] with VCAM-1/Ig instead of collagen. Binding to VCAM-1 was dependent on surface expression of α4β1.
Regarding `CN(CCCNCc1ccccc1Sc1ccc2ccccc2c1)c1ccccc1.O=C(O)C(F)(F)F.O=C(O)C(F)(F)F` [Cmpd AE], the EC50 is 7 µM.
The compound `CN1CCCN(C(=O)/C=C/c2ccc(Sc3ccc4c(ccn4C)c3)c(Cl)c2Cl)CC1.O=C(O)C(F)(F)F` [Cmpd T] showed an EC50 of 4 µM.
The same measure, in the same setting: for `CN(CCCNCc1ccccc1Sc1cccc(C(F)(F)F)c1)c1ccccc1.O=C(O)C(F)(F)F.O=C(O)C(F)(F)F` [Cmpd AK] the value was 9 µM.

Another data set has as its target iC3b (Homo sapiens (Human)) (UniProt P01024). Description: adhesion of COS-7 transfectants to immobilized iC3b.
Conditions: not given
In turn, “CD11b F333A / CD18 (from UniProt P11215) (receptor)” yielded a binding, % of 4.9%.
With “CD11b Q327A / CD18 (from UniProt P11215) (receptor)”, the binding, % worked out at 140%.
For the compound “CD11b I332A / CD18 (from UniProt P11215) (receptor)”, the binding, % amounted to 205%.
In the case of “CD11b V254A / CD18 (from UniProt P11215) (receptor)”, the binding, % worked out at 147%.
In turn, “CD11b E336A / CD18 (from UniProt P11215) (receptor)” gave a binding, % of 4.3%.

The next data set has as its target T2, CD11b (Mac-1) (Homo sapiens, UniProt P11215).
T2 construct: endogenous in cells; host or cells: neutrophils from fresh human blood
Description: CD11b-mediated neutrophil adhesion to fibrinogen. The note with it: after SAR efforts based on Cmpd S; read-out: IC50 (inhibition potency), neutrophil adhesion to fibrinogen. It counts as cell-based. The method, then:
The adhesion assay described above for CD18/CD11b-(Mac-1)-mediated adhesion of HL-60 cells to ICAM-1 was carried out with the following modifications. Each well was coated overnight at 4° C. with 50 μl of glycophorin (10 μg/ml), fibrinogen (5 μg/ml) or with anti-CD18 monoclonal antibody (22F12C, 5 μg/ml) and anti-CD11b monoclonal antibody (44AACB, 5 μg/ml) in 50 mM bicarbonate buffer (pH 9.6). Plates were blocked with 1% human serum albumin and no blocking antibody was used. Neutrophils were isolated from fresh heparin whole human blood by density gradient centrifugation and 100 μl of the cells (4×10^6 cells/ml) in adhesion buffer was added to each well. Plates were incubated at 37° C. for 10 minutes.
Regarding `CN(C)CCCCNCc1ccccc1Sc1c(Cl)cccc1Cl` [Cmpd AC], the IC50 is less than 0.2 µM.
Still for that read-out and setting: for `CC(CN(C)C)NCc1ccccc1Sc1ccc(C(C)(C)C)cc1` (stereo not drawn) [Cmpd AA] the value was less than 0.2 µM.

Still in this data set, the particulars now being: read-out: IC50, neutrophil adhesion to fibrinogen.
Turning to `CN(C)CCCCNCc1ccccc1Sc1ccc(Cl)cc1Cl` [Cmpd O], the IC50 was less than 10 µM.
For the compound `O=C(/C=C/c1ccc(Sc2ccccc2CN2CCOCC2)c(Cl)c1)N1CCOCC1` [Cmpd L], the IC50 is less than 10 µM.
On to `CN(C)CCNCc1ccc(Sc2ccc(Cl)cc2Cl)c(Cl)c1` [Cmpd R], for which the IC50 is less than 10 µM.
For `CN(C)CCN(Cc1ccc(Sc2ccc(Cl)cc2Cl)c(Cl)c1)C(=O)c1ccc(/C=C/C(=O)N2CCOCC2)cc1Cl` [Cmpd P], the IC50 is less than 10 µM.
In the case of `COC(=O)N1CCN(C(=O)/C=C/c2ccc(Sc3ccccc3C(C)C)c([N+](=O)[O-])c2)CC1` [Cmpd V], the IC50 is less than 10 µM.
Turning to `CN(C)CCNCc1ccccc1Sc1ccc(Cl)cc1Cl` [Cmpd S], the IC50 is < 10 µM and 1 µM.
In the case of `CN(C)CCN(Cc1ccccc1Sc1ccc(Cl)cc1Cl)C(=O)c1ccc(/C=C/C(=O)N2CCOCC2)cc1Cl` [Cmpd Q], the IC50 was less than 10 µM.
For `CC(C)c1ccccc1Sc1ccc(/C=C/C(=O)N2CCN(C(=O)OC(C)(C)C)C(CO)C2)cc1[N+](=O)[O-]` (stereo not drawn) [Cmpd F], the IC50 is less than 10 µM.
Same read-out and setting: for `CN(C)CCCCNCc1ccc(Sc2ccc(Cl)cc2Cl)c(Cl)c1` [Cmpd N] the value was less than 10 µM.

The target in another data set is α4β1 (Homo sapiens, UniProt P05556+P13612). Description: Jurkat cell binding to immobilized VCAM-1/Ig. In kind it is cell-based. More on the design: endogenous in cells; host or cells: Jurkat cells. The note with it: Jurkat cells; tested 0.15 μM to 20 μM; read-out: α7β1/VCAM EC50. The protocol:
These 21 compounds were further analyzed for specificity and toxicity. […] The assay was carried out in a manner similar to the collagen adhesion assay described above except that […] with VCAM-1/Ig instead of collagen. Binding to VCAM-1 was dependent on surface expression of α4β1.
Turning to `CN(CCCNCc1ccccc1Sc1ccc2ccccc2c1)c1ccccc1.O=C(O)C(F)(F)F.O=C(O)C(F)(F)F` [Cmpd AE], the EC50 is more than 20 µM.
Take `CN1CCCN(C(=O)/C=C/c2ccc(Sc3ccc4c(ccn4C)c3)c(Cl)c2Cl)CC1.O=C(O)C(F)(F)F` [Cmpd T]: the EC50 is 15 µM.
On the same count and under the same terms, for `CN(CCCNCc1ccccc1Sc1cccc(C(F)(F)F)c1)c1ccccc1.O=C(O)C(F)(F)F.O=C(O)C(F)(F)F` [Cmpd AK] the value was more than 20 µM.

The test system of the next data set is Jurkat cells. Description: Jurkat cell toxicity (CellTiter 96 Aqueous One Solution). It counts as cell-based. The note with it: four hr or 24 hr incubation. The protocol: For 21 compounds, toxicity of Jurkat cells was assessed following a four hr or 24 hr incubation. […] A two-fold serial dilution series of each compound was tested in a concentration range of 40 μM to 0.15 μM.
As to `CN(CCCNCc1ccccc1Sc1ccc2ccccc2c1)c1ccccc1.O=C(O)C(F)(F)F.O=C(O)C(F)(F)F` [Cmpd AE], the “TOXICITY LD50” value worked out at 30 µM.
For `CN1CCCN(C(=O)/C=C/c2ccc(Sc3ccc4c(ccn4C)c3)c(Cl)c2Cl)CC1.O=C(O)C(F)(F)F` [Cmpd T], the “TOXICITY LD50” value turned out to be 25 µM.
Consider `CN(CCCNCc1ccccc1Sc1cccc(C(F)(F)F)c1)c1ccccc1.O=C(O)C(F)(F)F.O=C(O)C(F)(F)F` [Cmpd AK], for which the “TOXICITY LD50” value is 35 µM.

For the next data set, the target named is ICAM-1/Fc (Homo sapiens (Human)) (UniProt P05362). Description: adhesion of COS-7 transfectants to immobilized ICAM-1/Fc.
Conditions: not given
Compound “CD11b F333A / CD18 (from UniProt P11215) (receptor)” registered a binding, % of 1.1%.
“CD11b Q327A / CD18 (from UniProt P11215) (receptor)” registered a binding, % of wildtype levels (% of wildtype levels) of 105.
Consider “CD11b I332A / CD18 (from UniProt P11215) (receptor)”, for which the binding, % of wildtype levels (% of wildtype levels) is 123.
“CD11b V254A / CD18 (from UniProt P11215) (receptor)” registered a binding, % of wildtype levels (% of wildtype levels) of 115.
“CD11b E336A / CD18 (from UniProt P11215) (receptor)” showed a binding, % of 0.7%.
